Data taken from paper PMC4445455 (The FEBS journal, 2015).
Where two headings read alike, the source gives them in different places.

Experiments:
E. coli DHFR [1] = target: T1, E. coli DHFR (Escherichia coli, UniProt P0ABQ4); type: biochemical; conditions: for inhibition at 1 mM inhibitor concentration (in words): E. coli DHFR
human DHFR [2] = target: T2, human DHFR (Homo sapiens, UniProt P00374); type: biochemical
T2 sequence (P00374 1-187): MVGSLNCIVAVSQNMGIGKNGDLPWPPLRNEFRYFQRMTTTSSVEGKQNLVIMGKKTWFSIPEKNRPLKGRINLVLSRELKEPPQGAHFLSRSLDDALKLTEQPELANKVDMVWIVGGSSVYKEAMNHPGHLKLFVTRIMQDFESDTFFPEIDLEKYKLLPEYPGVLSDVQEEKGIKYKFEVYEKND

human DHFR [3] = target: T2, human DHFR; conditions: product inhibition; cited from earlier work
E. coli DHFR [4] = target: T1, E. coli DHFR; conditions: product inhibition; cited from earlier work
[5] = previous study; cited from earlier work
cancer cells = conditions: previous study; cited from earlier work
E. coli DHFR [6] = target: T1, E. coli DHFR; assay: Progress curve analysis, slow tight binding; type: biochemical
human DHFR [7] = target: T2, human DHFR; assay: Progress curve analysis, slow tight binding, human DHFR; type: biochemical; conditions: time course of NADPH depletion
E. coli DHFR [8] = target: T1, E. coli DHFR; assay: Inhibition kinetics: substrate titration at fixed inhibitor concentrations; type: biochemical
[9] = IC-50, human DHFR 12.4 nM, 60 μM NADPH, 50 μM H2F, 100 mM HEPES pH 7.3

T1 sequence (P0ABQ4 whole entry): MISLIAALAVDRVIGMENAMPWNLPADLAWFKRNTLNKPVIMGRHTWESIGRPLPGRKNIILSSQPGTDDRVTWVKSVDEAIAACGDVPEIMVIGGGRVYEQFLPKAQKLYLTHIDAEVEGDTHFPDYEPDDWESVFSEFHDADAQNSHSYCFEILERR

Row | SMILES | IC50 (E. coli DHFR [1]) [µM] | Ki (E. coli DHFR [1]) [µM] | solubility in water (Solubility in water) | inhibition at 1 mM inhibitor concentration (in words) (E. coli DHFR [1]) | Ki (human DHFR [2]) [µM] | IC50 (human DHFR [2]; [9]) [µM] | also measured
1 | C1=Cc2ccccc2Nc2ccccc21 [ISB, 2,2'-Iminostilbene] | 587.8 ± 1.2 | 35.2 ± 5.36 | sparsely soluble in water |  |  |  | IC50 (human DHFR [2]; IC-50, human DHFR, table footnote to ND): > 2000 µM
2 | NC(=O)c1ccc[n+]([C@@H]2O[C@H](COP(=O)([O-])OP(=O)(O)OC[C@H]3O[C@@H](n4cnc5c(N)ncnc54)[C@H](OP(=O)(O)O)[C@@H]3O)[C@@H](O)[C@H]2O)c1 [NADP^+] |  |  |  |  |  |  | IC50 (human DHFR [3]): ~620 µM; IC50 (E. coli DHFR [4]): ~5000 µM
3 | Nc1ccc(NC(=O)c2ccc(C(=O)Nc3ccc(N)cc3)cc2)cc1 [NNBABD, N,N'-bis(4-aminophenyl)benzene-1,4-dicarboxamide] | 176.5 ± 1.1 | 10.9 ± 2.16 | sparsely soluble in water | almost complete inhibition | 5.16 ± 1.41 | 254.5 ± 1.79 | bactericidal activity [5]: didn't show; activity against cancer cells (cancer cells): didn't show
4 | O=C(Nc1ccc(Oc2ccc(NC(=O)Nc3ccc([N+](=O)[O-])cc3)cc2)cc1)Nc1ccc([N+](=O)[O-])cc1 [NNCPPU, 1-(4-nitrophenyl)-3-[4-[4-[(4-nitrophenyl)carbamoylamino]phenoxy]phenyl]urea] | 36.6 ± 1.1 | 2.06 ± 0.378 | sparsely soluble in water | almost complete inhibition | 1.97 ± 0.329 | 68.9 ± 1.36 | bactericidal activity [5]: didn't show; activity against cancer cells (cancer cells): didn't show
5 | Nc1ccc(-c2nc3nc(N)nc(N)c3nc2-c2ccc(N)cc2)cc1 [NSC61642, 6,7-bis (4-aminophenyl) pteridine-2,4-diamine, reference compound] |  |  |  | unambiguous inhibition |  |  | 
6 | Nc1nc2[nH]cc(CCc3ccc(C(=O)N[C@@H](CCC(=O)O)C(=O)O)cc3)c2c(=O)[nH]1 [NSC698037, pemetrexed, reference compound] |  |  |  | unambiguous inhibition |  |  | 
7 | C#CCC(Cc1cnc2nc(N)nc(N)c2n1)c1ccc(C(=O)N[C@@H](CCC(=O)O)C(=O)O)cc1 (stereo partly drawn) [NSC754230, pralatrexate, reference compound] |  |  |  | unambiguous inhibition |  |  | 
8 | Nc1nc(N)c2c(ccc3[nH]ccc32)n1 [PQD, 7H-Pyrrolo(3,2-f)quinazoline-1,3-diamine, reference compound] | 0.106 ± 0.0012 | 0.0042 ± 0.0005 |  | unambiguous inhibition | 0.0934 ± 0.009 | 3.087 ± 0.0165 | Kd (E. coli DHFR [6]): 0.00448 ± 0.00063 µM; kon (E. coli DHFR [6]): 350000 M⁻¹ s⁻¹; mode of inhibitor binding (time dependence, in words) (E. coli DHFR [6]; E. coli DHFR progress curves): classical tight-binding reversible inhibition; koff (E. coli DHFR [6]; time-dependent inactivation, 50 μM H2F, 60 μM NADPH): 0.094 ± 0.010 min^1; mode of inhibitor binding (time dependence, in words) (human DHFR [7]): didn't show any slow-onset of inhibition; IC50 (human DHFR [2]; IC-50, human DHFR): 3.09 ± 0.17 µM; fold reduction in potency (IC-50) for human DHFR vs E. coli DHFR (human DHFR [2]; selectivity human/E. coli): 30 fold; Ki (E. coli DHFR [8]): 0.00318 ± 0.00051 µM; αKi (E. coli DHFR [8]; uncompetitive inhibition, NADPH titrated): 72.17 ± 4.23 nM
